Data as given in patent publication US9453026B2, “ACC inhibitors and uses thereof” (Gilead Apollo, Inc., priority 2011, dated 2016).

Target: ACC2 (Homo sapiens, UniProt O00763)
Experiment: In vitro ACC2 inhibition assay (ADP-Glo)
Assay type: biochemical
Conditions: read-out: ACC2
Protocol: An exemplary procedure for the in vitro ACC inhibition assay, which can be used to determine the inhibitory action of compounds of the invention toward either ACC1 or ACC2, follows. The ADP-Glo™ Kinase Assay kit from Promega was used. The ADP-Glo™ Kinase Assay is a luminescent ADP detection assay to measure enzymatic activity by quantifying the amount of ADP produced during an enzyme reaction. The assay is performed in two steps; first, after the enzyme reaction, an equal volume of ADP-Glo™ Reagent is added to terminate the reaction and deplete the remaining ATP. Second, the Kinase Detection Reagent is added to simultaneously convert ADP to ATP and allow the newly synthesized ATP to be measured using a luciferase/luciferin reaction. Luminescence can be correlated to ADP concentrations by using an ATP-to-ADP conversion curve. The detailed procedure is as follows. 50 μL of the compound being tested (600 uM in DMSO) was added to a 384-well dilution plate. The compound was diluted 1:3 in succession in DMSO for each row for 11 wells. 0.5 μL ACC2 working solution was added to 384-well white Optiplate assay plate. 0.5 μL diluted compound solution in each column from step 2 to assay plate, each row containing 2 replicates. […] The plates were incubated at room temperature for 15 minutes. 5 μL substrate working solution was added to each well to initiate reaction. […] Plates were incubated at room temperature for 60 minutes. 10 μL ADP glo reagent was added. Plates were incubated at room temperature for 40 minutes. 20 μL kinase detection reagent was added.
Data for each concentration, as well as the positive and negative controls were averaged, and the standard deviation calculated. Percent inhibition was calculated by the formula: 100× (average negative control−compound)/(average negative control−average positive control). The IC50 for each compound was calculated by fitting the data with a non-linear regression equation: Y=Bottom+(Top-Bottom)/(1+10^((Log IC50−X)*HillSlope)), where X is the log of compound concentration and Y is percent inhibition.
The compound numbers correspond to the compound numbers in Table 1.

ACC2, sequence (O00763 whole entry, species assumed): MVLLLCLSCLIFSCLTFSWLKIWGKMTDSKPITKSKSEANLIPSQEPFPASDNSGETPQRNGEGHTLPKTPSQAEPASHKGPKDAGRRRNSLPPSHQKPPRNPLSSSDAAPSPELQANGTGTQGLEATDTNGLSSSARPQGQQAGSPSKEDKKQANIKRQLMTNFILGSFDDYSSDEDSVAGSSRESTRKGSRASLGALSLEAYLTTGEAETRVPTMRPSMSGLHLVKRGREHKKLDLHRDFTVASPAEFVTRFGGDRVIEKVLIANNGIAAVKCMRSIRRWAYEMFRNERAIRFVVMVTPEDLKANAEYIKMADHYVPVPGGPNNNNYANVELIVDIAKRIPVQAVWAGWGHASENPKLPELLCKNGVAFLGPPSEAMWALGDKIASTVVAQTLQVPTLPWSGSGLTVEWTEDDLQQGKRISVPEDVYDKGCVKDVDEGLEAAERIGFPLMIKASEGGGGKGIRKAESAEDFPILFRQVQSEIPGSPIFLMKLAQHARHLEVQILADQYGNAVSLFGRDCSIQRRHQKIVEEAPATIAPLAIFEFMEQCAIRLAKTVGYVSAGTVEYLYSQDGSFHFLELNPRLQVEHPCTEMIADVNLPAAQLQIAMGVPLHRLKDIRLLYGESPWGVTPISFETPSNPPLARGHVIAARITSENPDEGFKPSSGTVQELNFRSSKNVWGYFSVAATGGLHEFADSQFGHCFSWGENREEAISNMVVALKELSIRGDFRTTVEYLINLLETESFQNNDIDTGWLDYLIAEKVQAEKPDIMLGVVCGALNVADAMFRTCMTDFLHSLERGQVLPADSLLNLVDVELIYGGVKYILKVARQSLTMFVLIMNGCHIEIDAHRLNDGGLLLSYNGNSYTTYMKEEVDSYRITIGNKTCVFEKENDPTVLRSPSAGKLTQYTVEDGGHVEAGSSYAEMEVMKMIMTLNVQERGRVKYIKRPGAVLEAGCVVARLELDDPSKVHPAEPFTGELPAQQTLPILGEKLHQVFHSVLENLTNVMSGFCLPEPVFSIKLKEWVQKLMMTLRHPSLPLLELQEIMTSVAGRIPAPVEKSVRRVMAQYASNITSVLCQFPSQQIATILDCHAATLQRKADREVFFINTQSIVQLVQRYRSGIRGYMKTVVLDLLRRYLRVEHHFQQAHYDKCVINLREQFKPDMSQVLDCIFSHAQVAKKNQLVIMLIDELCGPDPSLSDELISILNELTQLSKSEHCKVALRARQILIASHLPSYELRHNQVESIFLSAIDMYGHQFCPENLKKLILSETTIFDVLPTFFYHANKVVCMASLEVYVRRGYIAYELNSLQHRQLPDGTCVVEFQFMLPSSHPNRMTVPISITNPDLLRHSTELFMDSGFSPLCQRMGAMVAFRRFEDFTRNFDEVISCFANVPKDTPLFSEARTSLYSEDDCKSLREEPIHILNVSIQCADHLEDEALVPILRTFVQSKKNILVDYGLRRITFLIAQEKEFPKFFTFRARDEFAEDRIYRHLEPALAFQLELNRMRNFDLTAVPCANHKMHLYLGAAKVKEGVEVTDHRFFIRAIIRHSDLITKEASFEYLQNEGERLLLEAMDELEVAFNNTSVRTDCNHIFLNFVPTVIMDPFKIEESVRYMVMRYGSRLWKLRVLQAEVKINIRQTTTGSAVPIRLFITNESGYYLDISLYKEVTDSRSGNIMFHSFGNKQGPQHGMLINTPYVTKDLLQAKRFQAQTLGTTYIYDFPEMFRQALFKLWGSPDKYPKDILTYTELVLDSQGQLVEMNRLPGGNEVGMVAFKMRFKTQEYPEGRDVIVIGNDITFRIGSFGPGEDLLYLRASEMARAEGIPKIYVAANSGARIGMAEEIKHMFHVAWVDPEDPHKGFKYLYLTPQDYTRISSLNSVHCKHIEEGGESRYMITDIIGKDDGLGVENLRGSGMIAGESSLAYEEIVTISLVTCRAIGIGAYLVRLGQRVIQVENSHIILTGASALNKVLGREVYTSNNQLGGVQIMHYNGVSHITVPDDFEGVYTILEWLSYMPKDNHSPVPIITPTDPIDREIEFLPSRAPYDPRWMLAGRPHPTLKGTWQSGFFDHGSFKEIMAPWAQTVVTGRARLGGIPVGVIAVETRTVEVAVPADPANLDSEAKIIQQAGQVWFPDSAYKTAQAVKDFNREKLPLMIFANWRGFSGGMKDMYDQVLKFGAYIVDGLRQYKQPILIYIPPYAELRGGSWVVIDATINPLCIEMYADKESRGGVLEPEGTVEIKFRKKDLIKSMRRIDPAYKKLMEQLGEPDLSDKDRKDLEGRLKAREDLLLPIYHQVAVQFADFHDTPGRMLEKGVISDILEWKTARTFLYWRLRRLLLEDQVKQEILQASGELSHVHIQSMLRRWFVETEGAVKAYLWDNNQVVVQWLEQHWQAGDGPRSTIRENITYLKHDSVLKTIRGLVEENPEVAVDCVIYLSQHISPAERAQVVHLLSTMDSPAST

IC50, 20 to 50 µM:
Cc1csc2c1c(=O)n(CC(=O)O)c(=O)n2CCc1ccccc1 [I-63]
CCOC(=O)c1sc2c(c1C)c(=O)n(CCO)c(=O)n2C(C)Cc1ccccc1 (stereo not drawn) [I-36, ethyl 3-(2-hydroxyethyl)-5-methyl-2,4-dioxo-1-(1-phenylpropan-2-yl)-1H,2H,3H,4H-thieno[2,3-d]pyrimidine-6-carboxylate]
O=C(O)Cn1c(=O)c2c3c(sc2n(CCc2ccccc2)c1=O)CCC3 [I-4]
CCOC(=O)c1sc2c(c1C)c(=O)n(CC(=O)O)c(=O)n2CC(=O)c1ccccc1 [I-73, 2-[6-(ethoxycarbonyl)-5-methyl-2,4-dioxo-1-(2-oxo-2-phenylethyl)-1H,2H,3H,4H-thieno[2,3-d]pyrimidin-3-yl]acetic acid]
O=C(O)Cn1c(=O)c2c3c(sc2n(CCc2ccccc2)c1=O)CCCC3 [I-3]
Cc1c(-c2ncco2)sc2c1c(=O)n(C(C)(C)C(=O)O)c(=O)n2C[C@H](OC1COC1)c1ccccc1 [I-182, 2-methyl-2-[5-methyl-6-(1,3-oxazol-2-yl)-1-[(2R)-2-(oxetan-3-yloxy)-2-phenylethyl]-2,4-dioxo-1H,2H,3H,4H-thieno[2,3-d]pyrimidin-3-yl]propanoic acid]

IC50, < 5 µM:
CCOC(=O)c1sc2c(c1C)c(=O)n(CC(=O)O)c(=O)n2CC(OC(C)=O)c1ccccc1 (stereo not drawn) [I-85, 2-[1-[2-(acetyloxy)-2-phenylethyl]-6-(ethoxycarbonyl)-5-methyl-2,4-dioxo-1H,2H,3H,4H-thieno[2,3-d]pyrimidin-3-yl]acetic acid]
COc1ccccc1[C@H](Cn1c(=O)n(CC(N)=O)c(=O)c2c(C)c(Br)sc21)OC1CCOCC1 [I-285, 2-[6-bromo-1-[(2R)-2-(2-methoxyphenyl)-2-(oxan-4-yloxy)ethyl]-5-methyl-2,4-dioxo-1H,2H,3H,4H-thieno[2,3-d]pyrimidin-3-yl]acetamide]
Cc1c(-c2ncco2)sc2c1c(=O)n(C(C)(C)C(=O)O)c(=O)n2CCc1ccccc1 [I-117, 2-methyl-2-[5-methyl-6-(1,3-oxazol-2-yl)-2,4-dioxo-1-(2-phenylethyl)-1H,2H,3H,34H-thieno[2,3-d]pyrimidin-3-yl]propanoic acid]
CCOC(=O)c1sc2c(c1C)c(=O)n(C(C)C(=O)O)c(=O)n2CCc1ccccc1 (stereo not drawn) [I-56, 2-[6-(ethoxycarbonyl)-5-methyl-2,4-dioxo-1-(2-phenylethyl)-1H,2H,3H,4H-thieno[2,3-d]pyrimidin-3-yl]propanoic acid]
Cc1c(-c2ncco2)sc2c1c(=O)n(C(C)(C)C(=O)O)c(=O)n2CCOC1CCOCC1 [I-233, 2-methyl-2-[5-methyl-1-[2-(oxan-4-yloxy)ethyl]-6-(1,3-oxazol-2-yl)-2,4-dioxo-1H,2H,3H,4H-thieno[2,3-d]pyrimidin-3-yl]propanoic acid]
CCOC(=O)c1sc2c(c1C)c(=O)n(CC(=O)O)c(=O)n2C[C@H](O)c1ccccc1 [I-78, 2-[6-(ethoxycarbonyl)-1-[(2R)-2-hydroxy-2-phenylethyl]-5-methyl-2,4-dioxo-1H,2H,3H,4H-thieno[2,3-d]pyrimidin-3-yl]acetic acid]
Cc1c(-c2ncco2)sc2c1c(=O)n(C(C)(C)C(=O)O)c(=O)n2C[C@H](OC(=O)N1CCOCC1)c1ccccc1 [I-231, 2-methyl-2-[5-methyl-1-[(2R)-2-[(morpholin-4-yl)carbonyloxy]-2-phenylethyl]-6-(1,3-oxazol-2-yl)-2,4-dioxo-1H,2H,3H,4H-thieno[2,3-d]pyrimidin-3-yl]propanoic acid]
CCOC(=O)c1sc2c(c1C)c(=O)n([C@@H](C)C(=O)O)c(=O)n2CCc1ccccc1 [I-80, (2S)-2-[6-(ethoxycarbonyl)-5-methyl-2,4-dioxo-1-(2-phenylethyl)-1H,2H,3H,4H-thieno[2,3-d]pyrimidin-3-yl]propanoic acid]

IC50, > 50 µM:
Cc1c(C(=O)O)sc2c1c(=O)n(CCO)c(=O)n2CCc1ccccc1 [I-5]
CCOC(=O)c1sc2c(c1C)c(=O)n(CCO)c(=O)n2Cc1ccc2ccn(C)c2c1 [I-64]
CCOC(=O)c1sc2c(c1C)c(=O)n(CCO)c(=O)n2Cc1ccc2ccccc2c1 [I-16, ethyl 3-(2-hydroxyethyl)-5-methyl-1-(naphthalen-2-ylmethyl)-2,4-dioxo-1H,2H,3H,4H-thieno[2,3-d]pyrimidine-6-carboxylate]
CCOC(=O)c1sc2c(c1C)c(=O)n(CCO)c(=O)n2CCc1c(F)cccc1F [I-24]
O=C(O)Cn1c(=O)c2ccsc2n(CCc2ccccc2)c1=O [I-65, 2-[2,4-dioxo-1-(2-phenylethyl)-1H,2H,3H,4H-thieno[2,3-d]pyrimidin-3-yl]acetic acid]

IC50, < 0.1 µM:
Cc1c(-c2ncco2)sc2c1c(=O)n(C(C)(C)C(=O)O)c(=O)n2C[C@H](OC1CCOCC1)c1ccccc1CO [I-296, 2-[1-[(2R)-2-[2-(hydroxymethyl)phenyl]-2-(oxan-4-yloxy)ethyl]-5-methyl-6-(1,3-oxazol-2-yl)-2,4-dioxo-1H,2H,3H,4H-thieno[2,3-d]pyrimidin-3-yl]-2-methylpropanoic acid]

IC50, 5 to 20 µM:
Cc1c(-c2ncco2)sc2c1c(=O)n(C(C)(C)C(=O)O)c(=O)n2C[C@@H](OCC(F)(F)F)c1ccccc1 [I-138, (S)-2-methyl-2-(5-methyl-6-(oxazol-2-yl)-2,4-dioxo-1-(2-phenyl-2-(2,2,2-trifluoroethoxy)ethyl)-1,2-dihydrothieno[2,3-d]pyrimidin-3(4H)-yl)propanoic acid]
CCCOC(=O)c1sc2c(c1C)c(=O)n(CC(=O)O)c(=O)n2CCc1ccccc1 [I-68, 2-[5-methyl-2,4-dioxo-1-(2-phenylethyl)-6-(propoxycarbonyl)-1H,2H,3H,4H-thieno[2,3-d]pyrimidin-3-yl]acetic acid]
Cc1c(-c2ncco2)sc2c1c(=O)n(C(C)(C)C(=O)O)c(=O)n2C[C@@H](OC(C)C)c1ccccc1 [I-120, 2-methyl-2-[5-methyl-6-(1,3-oxazol-2-yl)-2,4-dioxo-1-[(2S)-2-phenyl-2-(propan-2-yloxy)ethyl]-1H,2H,3H,4H-thieno[2,3-d]pyrimidin-3-yl]propanoic acid]
CCOC(=O)c1sc2c(c1C)c(=O)n(C(C)(C)C(=O)O)c(=O)n2C[C@@H](O)c1ccccc1 [I-102, 2-[6-(ethoxycarbonyl)-1-[(2S)-2-hydroxy-2-phenylethyl]-5-methyl-2,4-dioxo-1H,2H,3H,4H-thieno[2,3-d]pyrimidin-3-yl]-2-methylpropanoic acid]
CCOC(=O)c1sc2c(c1C)c(=O)n(CC(=O)O)c(=O)n2CC(OC(=O)COC)c1ccccc1 (stereo not drawn) [I-101, 2-[6-(ethoxycarbonyl)-1-[2-[(2-methoxyacetyl)oxy]-2-phenylethyl]-5-methyl-2,4-dioxo-1H,2H,3H,4H-thieno[2,3-d]pyrimidin-3-yl]acetic acid]

IC50, < 1 µM:
Cc1c(-c2ncco2)sc2c1c(=O)n(C(C)(C)C(=O)O)c(=O)n2C[C@H](OCC(C)(C)O)c1ccccc1 [I-175, 2-[1-[(2R)-2-(2-hydroxy-2-methylpropoxy)-2-phenylethyl]-5-methyl-6-(1,3-oxazol-2-yl)-2,4-dioxo-1H,2H,3H,4H-thieno[2,3-d]pyrimidin-3-yl]-2-methylpropanoic acid]
CCOC(=O)c1sc2c(c1C)c(=O)n(CC(=O)O)c(=O)n2CC(OC)c1ccccc1 (stereo in doubt) [I-105, 2-[6-(ethoxycarbonyl)-1-[(2S)-2-methoxy-2-phenylethyl]-5-methyl-2,4-dioxo-1H,2H,3H,4H-thieno[2,3-d]pyrimidin-3-yl]acetic acid]
CCc1ccccc1[C@@H](Cn1c(=O)n(C(C)(C)C(=O)O)c(=O)c2c(C)c(-c3ncco3)sc21)OCCO [I-263, 2-[1-[(2S)-2-(2-ethylphenyl)-2-(2-hydroxyethoxy)ethyl]-5-methyl-6-(1,3-oxazol-2-yl)-2,4-dioxo-1H,2H,3H,4H-thieno[2,3-d]pyrimidin-3-yl]-2-methylpropanoic acid]
Cc1c(-c2ncco2)sc2c1c(=O)n(C(C)(C)C(=O)O)c(=O)n2C[C@H](O[C@@H]1CCOC1)c1ccccc1 [I-186, 2-methyl-2-[5-methyl-6-(1,3-oxazol-2-yl)-2,4-dioxo-1-[(2R)-2-[(3R)-oxolan-3-yloxy]-2-phenylethyl]-1H,2H,3H,4H-thieno[2,3-d]pyrimidin-3-yl]propanoic acid]
Cc1c(-c2ncco2)sc2c1c(=O)n(C(C)(C)C(=O)O)c(=O)n2C[C@H](O[C@H](C)CO)c1ccccc1 [I-184, 2-[1-[(2R)-2-[[(2R)-1-hydroxypropan-2-yl]oxy]-2-phenylethyl]-5-methyl-6-(1,3-oxazol-2-yl)-2,4-dioxo-1H,2H,3H,4H-thieno[2,3-d]pyrimidin-3-yl]-2-methylpropanoic acid]
